Like-named read-outs stand apart in the source and are kept apart here. Where no end group is shown, it is not given here. [ ]: non-standard residue; d: D form.
Legend:
M. intracellulare = test: MIC against M. intracellulare; format: cell-based, Mycobacterium intracellulare; details: M. intracellulare (ATCC 13950); CAAT media
M. fortuitum = test: MIC against M. fortuitum; format: cell-based, Mycobacterium fortuitum; details: M. fortuitum (ATCC 6841); CAAT media
S. maltophilia = details: for MIC: S. maltophilia test organism of the sputum time-kill assay; for activity (MIC) against S. maltophilia isolates: all tested isolates, Tables 8-12
M. avium = test: MIC against M. avium; format: cell-based, Mycobacterium avium; details: M. avium (ATCC 700898); CAAT media
P. aeruginosa = details: for antibiofilm activity (MBEC) against P. aeruginosa: 2-hour treatments
P. apista = test: MIC by broth microdilution against P. apista; format: cell-based, Pandoraea apista; details: P. apista isolates
Method: (§1) MIC values were determined using a modification of the standard broth microdilution reference method defined by the Clinical and Laboratory Standards Institute (CLSI), CLSL. 2015. Methods for Dilution Antimicrobial Susceptibility Tests for Bacteria That Grow Aerobically; Approved Standard-10th Edition. Clinical and Laboratory Standards Institute, Wayne, PA. The modification was based on the replacement of Mueller Hinton Broth with either CAA media (with and without NaCl) or CAA supplemented with 2.5% human serum. MIC is the minimum concentration of peptide sufficient to suppress at least 80% of the bacterial growth compared to control.
(§2) Based on these nine most prevalent strains, direct lytic agents, including GN370, AM1, AM2, and AM3, were evaluated against various isolates from each of the 9 strains. MICs and MBECs (Example 3) were determined, and a sputum inhibition test was conducted, as described below in Example 5.
(§3) The MICs for were determined as described below using the broth microdilution method for meropenem, GN370, AM1, AM2, and AM3. The results are shown below in Tables 8-12.

A. ruhlandii = test: MIC by broth microdilution against A. ruhlandii; format: cell-based, Achromobacter ruhlandii; details: A. ruhlandii isolates
Method: as §1, §2, §3

[1] = S. maltophilia isolates, in µg/mL

Substance	MIC (M. intracellulare)	MIC (M. fortuitum)	MIC50 (S. maltophilia; S. maltophilia isolates)	MIC90 (S. maltophilia; S. maltophilia isolates)	MIC Range (S. maltophilia; [1])	MIC (S. maltophilia)	activity (MIC) against S. maltophilia isolates (S. maltophilia)	MIC (M. avium)	MBEC50 (P. aeruginosa)	MBEC90 (P. aeruginosa)	MBEC Range (P. aeruginosa)	antibiofilm activity (MBEC) against P. aeruginosa (P. aeruginosa)	MIC50 (P. apista)	MIC90 (P. apista)	MIC50 (A. ruhlandii)	MIC90 (A. ruhlandii)	further results
MRLKMARRRYRLPRRRSRRLFSRTALRMHPRNRLRRIMRGGIRF [AM1]	0.5 µg/mL	2 µg/mL	0.5 µg/mL	1 µg/mL	0.016-1	AM1 (MIC = 0.5)	highly active	1 Tg/mL	0.5 µg/mL	1 µg/mL	0.064 to 2 µg/mL	highly active	64 µg/mL	> 128 µg/mL	1 µg/mL	4 µg/mL	AM1 MIC50 (S. maltophilia): 0.5 µg/mL; AM1 MIC90 (S. maltophilia): 1 µg/mL; MIC50 (S. maltophilia): 0.5 µg/mL; MIC90 (S. maltophilia): 1 µg/mL; MIC Range (S. maltophilia; MDR S. maltophilia isolates (n = 8), in µg/mL): 0.5-1; AM1 MIC Range (S. maltophilia; carbapenem-resistant S. maltophilia isolates (n = 23), in µg/mL): 0.016-1; MIC Range (A. ruhlandii; in µg/mL): 0.125-8
M[dR]L[dK]MA[dR][dR][dR]Y[dR]LP[dR][dR][dR]S[dR][dR]LFS[dR]TAL[dR]MHP[dR]N[dR]L[dR][dR]IM[dR]GGI[dR]F [AM2]	0.5 µg/mL	4 µg/mL	0.5 µg/mL	1 µg/mL	0.03-2	AM2 (MIC = 0.5)	highly active	1 Tg/mL	0.25 µg/mL	1 µg/mL	0.016 to 2 µg/mL	highly active	> 128 µg/mL	> 128 µg/mL	2 µg/mL	16 µg/mL	

From US20240181022A1, “AMURINS LYSINS, AND LYSIN-ANTIMICROBIAL PEPTIDE (AMP) CONSTRUCTS ACTIVE AGAINST GRAM-NEGATIVE BACTERIA” (priority 2021, published 2024)
